This passage reports EC50, IC50 and outcome results from PubChem BioAssay AID179 (DTP/NCI, 2004).

The test system of this assay is CEM cells HIV-1 protection, formazan growth assay. As to the kind of experiment: NCI AIDS Antiviral Assay. Particulars: for IC50: measured here: growth of uninfected CEM cells. The procedure, abridged: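 Five concentrations of each compound were applied to infected and uninfected human CEM cells. Protection from HIV-1 was judged from growth measured with a soluble formazan assay.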

Activity calls are given as the source filed them.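 The calls were made as follows: active = compounds giving half or more protection of infected cells from virus-caused growth loss, again on retest; inactive = the rest.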 Where a SMILES comes first, the peptide text is derived from it. [ ]: non-standard residue; d: D form. The star is where a group is joined. ξ: configuration not given here. NMeF = CN[CH](Cc1ccccc1)C(=O)O; ξNMe2Val = CC(C)C(C(=O)*)N(C)C; NMeV = CN[CH](C(=O)O)C(C)C; OtBu = CC(C)(C)O*

In the case of `Cc1ccccc1Nc1cn(COCc2ccccc2)c(=O)[nH]c1=O`, the EC50 (usually the midpoint of the concentration-response curve) was greater than 200 µM and the IC50 (as a rule, the point on the concentration scale where inhibition reaches its midpoint) stood at 42.7 µM.
For `O=C1C2CCSCN2C(=O)N1c1ccccc1` (configuration not stated), the EC50 is greater than 40.7 µM and the 50% inhibitory concentration (IC50) is greater than 40.7 µM.
`CCOC(=O)C1=C(C)C(C(=O)OC)/C(=C/c2cccc3cccnc23)C1=O` (configuration not stated): the EC50 was greater than 200 µM and the IC50 was determined as 10.7 µM.
As for `COc1cc(C[C@@H](C)N)cc(OC)c1`, the EC50 is greater than 200 µM and the IC50 is greater than 200 µM.
With `O=C(Nc1nc(=S)c2c(ncn2CCOC(=O)c2ccccc2)[nH]1)c1ccccc1`, the EC50 is greater than 61.7 µM and the IC50 was greater than 61.7 µM.
As for `CCCCCCCC[N+](C)(C)Cc1ccc(C[N+](C)(C)CCCCCCCC)cc1`, the result was inactive.
For the compound `Cn1c(=S)sc2nc3ccccc3n2c1=S`, the EC50 was greater than 200 µM and the IC50 amounted to 10.7 µM.
On to `COC1=NC2=NCCN2C(OC)=N1`, for which the EC50 was greater than 200 µM and the IC50 is greater than 200 µM.
For the compound `O=c1oc2cc(O)ccc2c(O)c1Cc1c(O)c2ccc(O)cc2oc1=O`, the EC50 was greater than 200 µM and the IC50 came to 162 µM.
On to `C=[N+](CNC(=O)CNC(=O)C(Cc1ccccc1)NC(=O)OC(C)(C)C)C(=O)CNC(=O)C(Cc1ccccc1)NC(=O)OC(C)(C)C` (configuration not stated), for which the EC50 is greater than 100 µM and the concentration for half-maximal inhibition (IC50) is greater than 100 µM.
Regarding `O=C1C=Cc2cc(Br)ccc2C12CCc1c(O)ccc3cc(Br)cc2c13` (configuration not stated), the outcome was inactive.
For the compound `COC(=O)C1(C)OC(C)=NC1(C(=O)OC)C(=O)OC` (configuration not stated), the EC50 was greater than 200 µM and the IC50 is greater than 200 µM.
With `Nc1ncnc2nc(C(O)C(O)C(O)CO)[nH]c12` (configuration not stated), the EC50 was greater than 102 µM and the concentration for half-maximal inhibition (IC50) is greater than 102 µM.
With `O=C(CCCNc1nc(-c2ccccc2)cs1)c1cccs1`, the EC50 was greater than 50.1 µM and the IC50 was greater than 50.1 µM.
As for `Cn1c(=O)c2c(nc3n(C)c(=O)c4ccccc4n23)n(C)c1=O`, the EC50 is greater than 200 µM and the IC50 was 2.51 µM.
In the same order, the values of `COc1cc2c(c(OC)c1OC)CCC1(C)C(=O)NN=C21` (configuration not stated) are greater than 871 µM and 275 µM.
As to `COc1cc2c(c(OC)c1OC)C(=O)C1C2N1C(=O)CCCCl` (configuration not stated), the EC50 is greater than 200 µM and the IC50 is greater than 200 µM.
As for `N#CC(c1ccc(O)cc1)N1CCN(C(C#N)c2ccc(O)cc2)CC1` (configuration not stated), the EC50 was greater than 200 µM and the IC50 is greater than 200 µM.
As to `COC(=O)c1ccc(OCc2ccc3oc(=O)c(-c4ccccc4)nc3c2)cc1`, the EC50 was greater than 1.41 µM and the IC50 is greater than 1.41 µM.
Turning to `CC(=O)Nc1cc2c3c(c1)CCCN3CCC2`, the EC50 is greater than 200 µM and the IC50 is 39.8 µM.
In the same order, the values of `Nc1nc2cc([N+](=O)[O-])cnc2s1` are greater than 479 µM and 437 µM.
The matching figures for `O=C(N/C(=C\c1ccccc1)C1Nc2ccccc2C(=O)O1)c1ccccc1` (configuration not stated): greater than 200 µM and 17.4 µM.
As for `c1c(N2CCOCC2)ssc1=[N+]1CCOCC1`, the result was inactive.
As to `NC1=Nc2ccccc2Sc2ccccc21`, the EC50 was greater than 60.3 µM and the IC50 was greater than 60.3 µM.
On to `CCOC(=O)c1ccc(N(CC(=O)O)S(=O)(=O)c2ccc(C)cc2)s1`, for which the EC50 is greater than 20 µM and the IC50 was greater than 20 µM.
In the case of `CC(C)C(C(=O)N(C)C(Cc1ccccc1)C(=O)N(C)C(C(=O)N(C)C(C(=O)N1CCCC1C(=O)OC(C)(C)C)C(C)C)C(C)C)N(C)C` (configuration not stated) (ξNMe2Val-[NMeF][NMeV][NMeV]P-OtBu; configuration not given here), the EC50 is 24.5 µM and the IC50 worked out at 110 µM.
In the case of `CO/N=C(\C(=O)Nc1cncs1)c1csc(N)n1`, the EC50 was greater than 200 µM and the IC50 is greater than 200 µM.
As for `C/C(=N\NC(N)=S)c1ccc(/C(C)=N/NC(N)=S)cc1`, the outcome was inactive.
As to `CN(C)CC(=O)N1CC(COS(C)(=O)=O)c2ccc(O)cc21` (configuration not stated), the EC50 was greater than 20 µM and the concentration for half-maximal inhibition (IC50) came out at 3.47 µM.
Turning to `O=c1cc2c(Cl)cccc2n[nH]1`, the EC50 is greater than 195 µM and the half-inhibitory concentration (IC50) is greater than 195 µM.
`O=C1N[C@H]2c3c(Cl)sc(Cl)c3[C@@H](O)[C@H]2O1`: the EC50 is greater than 200 µM and the IC50 is greater than 200 µM.
As for `CCCCCCCCCCCC(=O)Nc1ccc(SSc2ccc(NC(=O)CCCCCCCCCCC)cc2)cc1`, the EC50 was greater than 200 µM and the IC50 is greater than 200 µM.
For the compound `Cc1ccc(OP2(=O)Nc3ccccc3S2)cc1` (configuration not stated), the EC50 is greater than 468 µM and the IC50 is 25.7 µM.
The matching figures for `CC#CCCC1CCCCNC1=O` (configuration not stated): greater than 138 µM and greater than 138 µM.
As for `CCc1n[nH]c(=O)n1CC`, the EC50 was greater than 200 µM and the IC50 was greater than 200 µM.
As for `CC1(C)CCCC2(C)[C@@H]1CC[C@@]13CC(=O)[C@@](C)(CC[C@@H]21)C3` (some centres not stated), the EC50 is greater than 91.2 µM and the IC50 was greater than 91.2 µM.
In the case of `O=C(O)CCCCCCCCCCC(=O)O`, the EC50 was greater than 148 µM and the IC50 is greater than 148 µM.
Consider `COc1cc2c(cc1OC)C(=O)Cc1ccc(OC)c(OC)c1CN(C)CC2`, for which the EC50 was greater than 67.6 µM and the IC50 was greater than 67.6 µM.
With `CC(CC(=O)N[C@H](C[C@@H](C)C(Cl)(Cl)Cl)c1nccs1)C(Cl)(Cl)Cl` (some centres not stated), the result was active.
As to `O=C(O)C1OC12CCCCC2` (configuration not stated), the EC50 was greater than 200 µM and the IC50 was greater than 200 µM.
Turning to `CN1C(=O)C(/C=N/NC(=O)c2cccnc2)C(N)N(C)C1=O` (configuration not stated), the EC50 is greater than 200 µM and the IC50 is greater than 200 µM.
For `O=C(/C=C/c1ccc(Cl)cc1)Oc1ccc(/C=C2\CCCCC2=O)cc1`, the EC50 was greater than 200 µM and the IC50 amounted to 42.7 µM.
For `O=C(CC(=O)N1N=C(c2ccccc2)C(N=Nc2ccccc2[N+](=O)[O-])C1=O)Nc1ccccc1F` (configuration not stated), the EC50 is greater than 27.5 µM and the IC50 was greater than 27.5 µM.
On to `C=C1C(O)O[C@@H]2O[C@@]3(C)CC[C@H]4[C@H](C)CC[C@@H]1[C@@]24OO3` (some centres not stated), for which the EC50 is greater than 200 µM and the concentration for half-maximal inhibition (IC50) was determined as 8.71 µM.
`COc1ccnc(C(=O)N2CCCC2C(=O)O)c1` (configuration not stated): the EC50 was greater than 200 µM and the concentration for half-maximal inhibition (IC50) is greater than 200 µM.
As for `Nc1ncnc2ccc(Sc3ccc4ncnc(N)c4c3)cc12`, the EC50 is greater than 100 µM and the IC50 is greater than 100 µM.
In the case of `c1ccc2c(c1)CCN(C1=NCCO1)C2`, the EC50 was greater than 200 µM and the IC50 was 178 µM.
On to `COc1cc2c3c(c1)ncn3C(=O)C(c1ccccc1)S2` (configuration not stated), for which the EC50 was greater than 200 µM and the IC50 came out at 87.1 µM.
With `COc1cc2c(cc1OC)C1=NN(c3ccccc3)C(=O)C1CC2` (configuration not stated), the EC50 is greater than 8.51 µM and the IC50 was greater than 8.51 µM.
For `CC(=O)N/N=C(\C=C\c1ccccc1)c1ccccc1OC(C)=O`, the EC50 is greater than 200 µM and the IC50 is 107 µM.
Take `Nc1ccc(N)c(N2C(=O)c3ccccc3C2=O)c1`: the EC50 was greater than 200 µM and the IC50 is greater than 200 µM.
On to `COc1ccc([C@H]2CC(=O)C[C@H](c3ccc(OC)cc3)C23C(=O)c2ccccc2C3=O)cc1`, for which the EC50 is greater than 200 µM and the IC50 came to 2.63 µM.
On to `C=CCC1(C)CCCCC1(O)CS(=O)c1ccccc1` (configuration not stated), for which the outcome was inactive.
In the case of `COc1ccc(C2C3=C(CCCC3=O)N(c3ccccc3)C3=C2C(=O)CCC3)cc1`, the EC50 was greater than 200 µM and the IC50 was greater than 200 µM.
